Data taken from patent US10774084B2, “Adenine derivatives and their use as UV-photoprotective agents” (UNIVERZITA PALACKEHO V OLOMOUCI, priority 2015, dated 2020).

What was measured:
[1] = tested on: Caenorhabditis elegans strain fem-1/HT17; assay: Lifespan of Caenorhabditis elegans; assay type: in vivo; settings: for average lifespan / median lifespan: 25° C.; for effect on lifespan of worms (in words): Log-Rank test, Bonferroni correction
Text: Caenorhabditis elegans is a model organism used for identification of compounds with possible beneficial effect on human aging and age-related diseases. The list of compounds that prolong the lifespan of C. elegans and are known to have beneficial effect on human health includes resveratrol, curcumin and many others. Some substances that prolong the lifespan of worms are also used in skin rejuvenating and anti-aging cosmetics, for example vitamin E, coenzyme Q10, green tea or pomegranade extracts and cytokinin kinetin. The Caenorhabditis elegans strain used in this experiment was fem-1/HT17. This strain has a heat-inducible mutation which causes all worms to develop into females when cultivated in 25° C. (13). That prevents further reproduction and contamination of the experiment with progeny. Compounds dissolved in DMSO (100 mM stock solutions) were added into fresh NGM (nematode growth medium) to the final concentration of 10 and 50 or 100 μM and pipetted onto a Petri dish. Medium with DMSO vehiculum alone and non-treated medium were used as negative control. After solidification of NGM, the plates were seeded with 100 μl of 20× concentrated overnight suspension of Escherichia coli strain OP50 in LB medium. Bacteria on plates were allowed to grow overnight in 37° C. Age synchronized young adults (obtained by hypochlorite treatment) were then pipetted onto plates. Plates were kept in 25° C. In regular time intervals (1-3 days), the plates were scanned on an Epson perfection V700 photo flatbed scanner. The number of surviving worms was established by image analysis based on comparison of several subsequent photographs and identification of moving objects. Pictures were analyzed in Fiji similarly as described here. Scripts from the original publication were slightly modified and the parameters adjusted to better suit our photo resolution and lighting. Three subsequent pictures of a plate were compared with each other. The average of the 3 resulting numbers was used to reduce the possibility of error. The overall results were then analyzed in programs OASIS and ED50v10. The statistical significance was evaluated by Log-Rank test and P-values were corrected by Bonferroni correction.

[2] = tested on: skin fibroblasts BJ and keratinocytes HaCaT; assay: MTT in vitro cytotoxicity test for skin cells; assay type: cell-based; settings: Homo sapiens; 72 hour treatment; table does not say which cell line (BJ, HaCaT)
Protocol: MTT assay is a standard test of toxicity based on photometric measurement of the ability of metabolically active cells to reduce MTT (3-(4,5-dimethylthiazol-2-yl)-2,5-diphenyltetrazolium bromide). Using the assay, the effects of 72 hour treatments with several concentrations of the compounds (sixfold dilution, maximal concentration=50 microM) on viability of skin fibroblasts BJ and keratinocytes HaCaT were evaluated. About 5,000 cells were seeded per well of a 96-well plate 24 hours before the treatment. DMSO vehiculum was used as a negative control. After 72 hour treatment, new medium with MTT (Sigma, M2128) was added to a final concentration of 0.5 mg/ml. After 3 hours, medium was removed and resulting formazan in the cells was dissolved in DMSO. The absorbance was measured at 570 nm (640 nm reference wavelength). The IC50 values were calculated from the dose-response curves. 6-furfurylaminopurine riboside was used as positive controls.

[3] = tested on: Triticum aestivum cv. Hereward leaf segments; assay: Senescence bioassay on detached wheat leaf segments (chlorophyll retention); settings: for maximum effective concentration: 96 h in the dark; for activity (%) [10^−4 mol · l^−1 BAP = 100%]: at maximum effective concentration
Protocol: Seeds of winter wheat, Triticum aestivum cv. Hereward, were washed under running water for 24 hours and then sown on vermiculite soaked with Knop's solution. They were placed in the growth chamber at 25° C. with a 16/8 h light period at […]. After 7 days, the first leaf was fully developed and the second leaf had started to grow. A tip section of the first leaf, approximately 35 mm long, was removed from 5 seedlings and trimmed slightly to a combined weight of 100 mg. The basal ends of the five leaf tips were placed in the wells of a microtiter polystyrene plate containing 150 μL of the tested derivative solution each. The entire plate was inserted into a plastic box lined with paper tissues soaked in distilled water to prevent leaf sections from drying out. After 96 h incubation in the dark at 25° C., the leaves were removed and chlorophyll extracted by heating at 80° C. for 10 min in 5 mL of 80% ethanol (v/v). The sample volume was then restored to 5 mL by the addition of 80% ethanol (v/v). The absorbance of the extract was recorded at 665 nm. In addition, chlorophyll extracts from fresh leaves and leaf tips incubated in deionised water were measured. The results are means of five replicates and the entire test was repeated twice. […] The compounds to be tested were dissolved in dimethylsulfoxide (DMSO) and the solution brought up to 10^−3 M with distilled water. […] The activity obtained for 10^−4 M of BAP was postulated as 100%. Kinetin was used as the second standard. Newly prepared compounds generally exceeded the efficiency of standard (BAP) by 10% of its activity (Tab. 5).

SMILES	average lifespan ([1]; 10 μM in NGM)	median lifespan ([1]; 10 μM in NGM)	average lifespan ([1]; 100 μM in NGM)	median lifespan ([1]; 100 μM in NGM)	effect on lifespan of worms (in words) [1]	IC50 [2]	maximum effective concentration [3]	activity (%) [10^−4 mol · l^−1 BAP = 100%] [3]
c1nc(NCC2CCCO2)c2ncn(C3CCCO3)c2n1 (centres unmarked) [Compound 1, 6-(tetrahydrofuran-2-ylmethylamino)-9-(tetrahydrofuran-2-yl)purine]	11.9 days	10.3 days	12.6 days	10.2 days	significantly prolonged	> 100 µM	10^−4 mol · l^−1	125 ± 9%
c1csc(CNc2ncnc3c2ncn3C2CCCO2)c1 (centres unmarked) [Compound 9, 6-(thiophen-2-ylmethylamino)-9-(tetrahydrofuran-2-yl)purine]	–	–	–	–	–	> 100 µM	10^−4 mol · l^−1	112 ± 5%
Clc1nc(NCc2ccco2)c2ncn(C3CCCO3)c2n1 (centres unmarked) [Compound 15, 2-chloro-6-furfurylamino-9-(tetrahydrofuran-2-yl)purine]	11.3 days	9.4 days	13.8 days	10.3 days	–	> 100 µM	–	–
Clc1nc(NCC2CCCO2)c2ncn(C3CCCO3)c2n1 (centres unmarked) [Compound 20, 2-chloro-6-(tetrahydrofuran-2-ylmethylamino)-9-(tetrahydrofuran-2-yl)purine]	12.4 days	11.2 days	11.2 days	10.2 days	significantly prolonged	–	10^−4 mol · l^−1	127 ± 5%
